The source of these data is patent US10154673B2, “Method of removing lactose from a solution” (Stellenbosch University, priority 2014, dated 2018).

Series [1] in a line: ONPG activity assay of purified free β-gal. The settings on record: for Vmax / Km: free enzyme. Format: biochemical. The procedure: (§1) Purified β-gal was assayed using a colorimetric activity assay. Both enzymes were assayed at varying substrate concentrations. The assay took place in phosphate buffer (93 mM Sodium phosphate, 1 mM MgCl2, 112 mM β-mercaptoethanol, pH 7.3) with varying amounts of substrate concentration. The assay was performed in a BioTek® PowerWave 340 spectrophotometer at 37° C. for 5 min with a reading taken every 5 s. The buffers were preincubated at 37° C. for 30 min prior to the assay.
The activity needed to be determined for both the wildtype and E537D mutant β-gal prepared for this study, since the addition of the His-tag could influence enzyme activity. The activity of β-gal was determined using the ONPG activity assay. The kinetic parameters (Km and Vmax) were determined using the Michaelis Menten equation and Graphpad Prism® version 5 software for Windows, Graphpad Software, La Jolla Calif. USA.

The nature of series [2]: Competitive activity assay (lactose as inhibitor, ONPG as substrate). The series is classed as biochemical. The following applies: for Vmax: ONPG with lactose 6, 16 and 60 mM as competitive inhibitor; for Ki: competitive inhibition by lactose, ONPG as substrate. The procedure:
The protocol for the above activity assay was repeated, but with the addition of lactose as an inhibitor. Lactose was added to final concentration of 6, 16 and 60 mM respectively.
The assay for the activity of β-gal, with lactose as substrate, is relatively complex and generally requires the use of HPLC. It was therefore decided to use a competitive activity assay instead. Lactose was therefore added together with ONPG to determine if the expressed enzymes did have an affinity for the natural substrate. Lactose would compete for the active site with ONPG and therefore the greater the inhibition the higher the affinity of lactose for that particular active site.
The results obtained were analysed with the aid of Michaelis Menten plots and the Ki values for lactose were determined using Graphpad Prism® version 5 for Windows, Graphpad Software, La Jolla Calif. USA.

Series [3] can be described thus: Adsorption of β-gal onto Dynabeads (HIPD), BCA protein determination. Format: binding. The following applies: room temperature, optimal concentration. The method, then: To determine the amount (μg) of β-gal that was bound to Dynabeads® (HIPD), a BCA protein assay was performed according to the manufacturer's protocol. A standard curve with BSA was established in a range from 0 to 2 mg/ml. The analysis was performed at 540 nm.
A dilution series of purified β-gal wildtype and E537D mutant was prepared in a concentration range from 0 to 0.4 mg/ml. The dilution series was incubated with the beads (25 μl) for 10 min at 25° C. according to the manufacturer's protocol to ensure optimal adsorption of β-gal onto the beads. The beads were subsequently separated from the solution with a magnet and the supernatant was removed and analysed as described immediately above. The beads were then washed three times in dialysis buffer and the supernatant of the wash steps were also analysed for protein content.
The experimental procedure described above was repeated at 4 and 37° C.
Purified β-gal (wildtype and E537D mutant), was incubated with the beads (25 μl) at room temperature and optimal concentration to ensure maximum binding. The supernatant was removed from the solution at regular time intervals for 10 min. The collected fractions were assayed for protein content as described above. Analysis of β-gal bound to the beads took place with SDS-PAGE and Western blot analyses as outlined above.

A short description of series [4]: Partition HPLC analysis of the 14C lactose binding assay. The following applies: for hydrolysis of lactose during the binding experiment: binding assay supernatant, glucose peak at 4 min. The procedure: […] The immobilised β-gal was then removed from the ^14C lactose solution with a magnet. The original 0.2 nmol C14 solution and the residual supernatant from the binding experiment were analysed with a scintillation counter.
All HPLC analyses were carried out using a Carbohydrate Analysis column (Waters (WAT084038)) and a Radiomatic “Flo-one beta” A-100 radioactive flow detector at ambient temperature. An isochratic mixture of 20:80 water:acetonitrile was used as mobile phase at a flow rate of 2 ml/min. Scintillation fluid was pumped at 6 ml/min for radioactive detection. Retention times of ^14C glucose and ^14C lactose standards were determined separately. This was followed by analysis of the residual supernatant and original ^14C lactose solution from the lactose binding assay.

Series [5] is described as follows: Radioactive lactose binding assay (scintillation counting). The settings on record: 0.2 nmol β-gal/mg beads, 0.2 nmol 14C lactose, 5 min. The method, then:
Immobilised β-gal (Wildtype and E537D mutant) (0.2 nmol β-gal/mg beads) was incubated with 0.2 nmol ^14C lactose in buffer (500 mM NaPO4, 300 mM NaCl, 5 mM sodium metabisulphate, 0.2% tween20, pH 8) for 5 min. The immobilised β-gal was then removed from the ^14C lactose solution with a magnet. The original 0.2 nmol C14 solution and the residual supernatant from the binding experiment were analysed with a scintillation counter.

A short description of series [6]: ONPG activity assay of immobilised wildtype β-gal. Format: biochemical. The following applies: immobilised on Dynabeads, ONPG as substrate. The method, then:
as §1
70 μg β-gal (both E537D mutant and wildtype) were incubated for 10 min at 25° C. on a Vortex Genie 2 mixer (Healthcare technologies, South Africa) with 25 μl Dyanbeads® (HIPD). The immobilised β-gal was collected with the use of a magnet and the residual supernatant was removed for protein analysis. The beads were then washed three times and the wash supernatant was also kept and analysed for protein content.
The activity of the immobilized wildtype β-gal was determined with an ONPG activity assay as described earlier.

For orientation: Km means the concentration of substrate that gives half-maximal velocity. The term Ki denotes the dissociation constant of the complex between target and ligand, obtained from inhibition or displacement.

For “E537D mutant: N-terminal His-tagged E. coli β-galactosidase with Glu537 replaced by Asp”, the “activity lower/slower than the wildtype β-gal” value in series [1] (ONPG activity, Vmax ratio) is reported as 115 ×. The Vmax in series [1] (ONPG as substrate (FIG. 19 B legend)) came out at 2 μmol/min/protein; in series [1] (ONPG as substrate, 37° C.), 2 μmol/min/mg protein; in series [2], 2 µmol/min/mg. Also, the Km in series [1] (ONPG as substrate, 37° C.) is 270 µM. Besides, in series [2], the inhibition constant Ki was found to be 19 mM. Further, the “incubation time for maximum adsorption” value in series [3] is 5 min.

For the substance “immobilised E537D mutant β-gal: His-tagged E537D mutant β-gal immobilised on Dynabeads (HIPD) cobalt magnetic beads”, the “hydrolysis of lactose during the binding experiment” value in series [4] is “the lactose had not been hydrolysed”. For the same substance, the “hydrolysis of lactose to glucose” value in series [4] (incubation 20 min) is given as “relatively small glucose peak appeared”; in series [4] (incubation an hour (60 min)), “glucose peak had increased significantly”; in series [4] (incubation three hours), “majority of the substrate had been converted to glucose”. For the same substance, in series [5], the “percentage binding of 14C lactose from solution” value (“percentage binding” for short) is reported as “approximately 15%”.

With “immobilised wildtype β-gal: His-tagged wildtype β-gal immobilised on Dynabeads (HIPD) cobalt magnetic beads”, in series [4], the “hydrolysis of lactose during the binding experiment” value is reported as “hydrolysed the lactose completely”. Besides, in series [6], the Km turned out to be 1530 µM and the Vmax was found to be 135 µmol/min/mg. Further, in series [5], the “percentage binding” value is on record as “not able to bind lactose”. The “percentage binding” value in series [5] (listed as immobilised wildtype enzyme) is “approximately 2%”.

Take “wildtype β-gal: N-terminal His-tagged wildtype E. coli β-galactosidase (lacZ product), expressed and IMAC purified [reference compound]”: the Vmax in series [1] (ONPG as substrate) was 230 µmol/min/mg; in series [1] (ONPG as substrate, 37° C.), 230 μmol/min/mg protein; in series [2] it was 230 µmol/min/mg. Moreover, the Michaelis-Menten constant (Km) in series [1] (ONPG as substrate, 37° C.) came to 220 µM. Moreover, the inhibition constant (Ki) in series [2] came out at 12.4 mM. Besides, the “incubation time for maximum adsorption” value in series [3] is listed as 5 min.
